Key:
[1] = test system: Salmonella typhimurium tester strain TA1537; assay: Ames test (Bacterial Reverse Mutation Test), TA1537; assay type: cell-based
Method: (§1) PD152 (compound 2) was tested for genotoxic and cytotoxic side effects by Ames test. The Ames test is a Bacterial Reverse Mutation Test of mutagenicity that utilizes Salmonella typhimurium tester strains TA98, TA100, TA1535, TA1537 and Escherichia coli tester strain WP2 uvrA (pKM101), both in the presence and absence of S9.
(§2) The compound PD152 was tested at 10 concentrations (0.032-1000 μg/plate) in the presence of, or absence of, the hepatic enzyme S9.
The aniline FABP4/5 inhibitor compound, 2-((2-((2,4-dichloro-5-isopropoxyphenyl)amino)-2-oxoethyl)thio)-2-methylpropanoic acid (compound “B104” as disclosed in WO2023043803A1) also was tested for genotoxic and cytotoxic side effects by Ames test. […]

[2] = test system: Salmonella typhimurium tester strain TA1535; assay: Ames test (Bacterial Reverse Mutation Test), TA1535; assay type: cell-based
Method: as §1, §2
The aniline FABP4/5 inhibitor compound, 2-((2-((2,4-dichloro-5-isopropoxyphenyl)amino)-2-oxoethyl)thio)-2-methylpropanoic acid (compound “B104” as disclosed in WO2023043803A1) also was tested for genotoxic and cytotoxic side effects by Ames test. B104 was tested using the Salmonella typhimurium tester stains TA98, TA100, TA1535, and TA1537, both in the presence and absence of the hepatic enzyme S9, at 5 concentrations (1.5-64 μg/plate).

MB-231 xenograft tumors = assay: TNBC MB-231 xenograft model; assay type: in vivo, Nu/Nu nude mice; details: oral 20 or 40 mg/Kg, 5 times a week
Method: Seven-week-old Nu/Nu athymic female mice were injected subcutaneously into the right flank with 5×10^6 MB-231 cells 1:1 with Matrigel. Once tumors reached ˜50 mm^3 in size, mice were divided into 3 groups (n=5 for each group) and treatment started. Mice were treated by gavage with either vehicle (0.5% methyl cellulose, 1% Tween 80), 20 mg/kg, or 40 mg/kg of PD152 dissolved in vehicle, 5 days a week. Thirty days after treatment started mice were scarified. Statistical significance between the different treatment groups was evaluated using a Student's t-test. The experiment was conducted after approval by the institutional animal care and use committee at Case Western Reserve University.
TNBC xenograft model was used to test the efficacy of PD152 in suppressing tumors growth in vivo. 5×10^6 MB-231 cells were subcutaneously injected into the right flank of Nu/Nu nude mice and tumor growth was monitored twice a week. Once tumors were established and reached volume of ˜50 mm^3, mice were divided into 3 groups and treatments started. Mice were treated orally by either PD152 (20 mg/Kg, or 40 mg/Kg), or a vehicle 5 times a week.

MB-231 cells = assay: Proliferation assay (Incucyte confluency), MB-231; assay type: cell-based; details: Homo sapiens, 96 h, 4 days, read-out: IC50, inhibition of proliferation
Method: COS-7, MDA-MB-231, and HepG2, were cultured in Dulbecco's modified Eagle's medium (DMEM) supplemented with 10% fetal bovine serum (Invitrogen Life Sciences, Carlsbad, CA). BT-549, OVCAR5 and OVCAR8 cells were cultured in L-Glutamine containing RPMI medium supplemented with 10% fetal calf serum (Invitrogen Life Sciences, Carlsbad, CA). The primary Human Mammary Epithelial Cells (HMEC) were cultured in mammary epithelial cell complete medium (basal medium plus rH-Insulin (5 μg/mL); L-Glutamine (6 mM); Epinephrine (1 μM); Apo-Transferrin (5 μg/mL); rH-TGF-α (0.5 ng/mL); ExtractP (0.4%); Hydrocortisone Hemisuccinate (100 ng/mL)).
2000 cells were plated in each well of 96-well plate. The next day cells were treated with compounds and incubated in Incucyte for 4 days. Images taken every 4 hours for the duration of the time were analyzed to calculate percentage of confluency in response to the treatments. Growth inhibition was calculated as 1—(percentage of viable cells out of untreated cells).

[3] = TA1537, absence of S9, 0.0312 μg/plate
[4] = TA1537, absence of S9, 0.1 μg/plate
[5] = TA1537, absence of S9, 0.316 μg/plate
[6] = TA1537, absence of S9, 1 μg/plate
[7] = TA1537, absence of S9, 3.16 μg/plate
[8] = TA1537, absence of S9, 10 μg/plate
[9] = TA1537, absence of S9, 31.6 μg/plate
[10] = TA1537, absence of S9, 100 μg/plate
[11] = TA1537, absence of S9, 316 μg/plate
[12] = TA1537, absence of S9, 1000 μg/plate
[13] = TA1537, presence of S9, 0.0312 μg/plate
[14] = TA1537, presence of S9, 0.1 μg/plate
[15] = TA1537, presence of S9, 0.316 μg/plate
[16] = TA1537, presence of S9, 1 μg/plate
[17] = TA1537, presence of S9, 3.16 μg/plate
[18] = TA1537, presence of S9, 10 μg/plate
[19] = TA1537, presence of S9, 31.6 μg/plate
[20] = TA1537, presence of S9, 100 μg/plate
[21] = TA1537, presence of S9, 316 μg/plate
[22] = TA1537, presence of S9, 1000 μg/plate
[23] = TA1535, absence of S9, 0.0312 μg/plate
[24] = TA1535, absence of S9, 0.1 μg/plate
[25] = TA1535, absence of S9, 0.316 μg/plate
[26] = TA1535, absence of S9, 1 μg/plate
[27] = TA1535, absence of S9, 3.16 μg/plate
[28] = TA1535, absence of S9, 10 μg/plate
[29] = TA1535, absence of S9, 31.6 μg/plate
[30] = TA1535, absence of S9, 100 μg/plate
[31] = TA1535, absence of S9, 316 μg/plate
[32] = TA1535, absence of S9, 1000 μg/plate
[33] = TA1535, presence of S9, 0.0312 μg/plate
[34] = TA1535, presence of S9, 0.1 μg/plate
[35] = TA1535, presence of S9, 0.316 μg/plate
[36] = TA1535, presence of S9, 1 μg/plate
[37] = TA1535, presence of S9, 3.16 μg/plate
[38] = TA1535, presence of S9, 10 μg/plate
[39] = TA1535, presence of S9, 31.6 μg/plate
[40] = TA1535, presence of S9, 100 μg/plate
[41] = TA1535, presence of S9, 316 μg/plate
[42] = TA1535, presence of S9, 1000 μg/plate

CC(C)Oc1nc(NC(=O)CSCC(=O)O)c(Cl)cc1Cl [PD152, 2-((2-((3,5-dichloro-6-isopropoxypyridin-2-yl)amino)-2-oxoethyl)thio)acetic acid]
Fold increase [1, 3]: 1 | Mean number of revertants [1, 3]: 3 | Fold increase [1, 4]: 1 | Mean number of revertants [1, 4]: 3 | Fold increase [1, 5]: 1 | Mean number of revertants [1, 5]: 4 | Fold increase [1, 6]: 1 | Mean number of revertants [1, 6]: 3 | Fold increase [1, 7]: 1 | Mean number of revertants [1, 7]: 3 | Fold increase [1, 8]: 1 | Mean number of revertants [1, 8]: 3 | Fold increase [1, 9]: 1 | Mean number of revertants [1, 9]: 4 | Fold increase [1, 10]: 1 | Mean number of revertants [1, 10]: 3 | Fold increase [1, 11]: 1 | Mean number of revertants [1, 11]: 3 | Fold increase [1, 12]: 1 | Mean number of revertants [1, 12]: 3 | Fold increase [1, 13]: 1 | Mean number of revertants [1, 13]: 4 | Fold increase [1, 14]: 1 | Mean number of revertants [1, 14]: 3 | Fold increase [1, 15]: 1 | Mean number of revertants [1, 15]: 3 | Fold increase [1, 16]: 1 | Mean number of revertants [1, 16]: 3 | Fold increase [1, 17]: 1 | Mean number of revertants [1, 17]: 3 | Fold increase [1, 18]: 1 | Mean number of revertants [1, 18]: 4 | Fold increase [1, 19]: 1 | Mean number of revertants [1, 19]: 3 | Fold increase [1, 20]: 1 | Mean number of revertants [1, 20]: 3 | Fold increase [1, 21]: 1 | Mean number of revertants [1, 21]: 4 | Fold increase [1, 22]: 1 | Mean number of revertants [1, 22]: 4 | Fold increase [2, 23]: 1 | Mean number of revertants [2, 23]: 3 | Fold increase [2, 24]: 1 | Mean number of revertants [2, 24]: 3 | Fold increase [2, 25]: 1 | Mean number of revertants [2, 25]: 3 | Fold increase [2, 26]: 1 | Mean number of revertants [2, 26]: 3 | Fold increase [2, 27]: 1 | Mean number of revertants [2, 27]: 3 | Fold increase [2, 28]: 1 | Mean number of revertants [2, 28]: 4 | Fold increase [2, 29]: 1 | Mean number of revertants [2, 29]: 4 | Fold increase [2, 30]: 1 | Mean number of revertants [2, 30]: 4 | Fold increase [2, 31]: 1 | Mean number of revertants [2, 31]: 3 | Fold increase [2, 32]: 1 | Mean number of revertants [2, 32]: 3 | Fold increase [2, 33]: 1 | Mean number of revertants [2, 33]: 3 | Fold increase [2, 34]: 1 | Mean number of revertants [2, 34]: 4 | Fold increase [2, 35]: 1 | Mean number of revertants [2, 35]: 3 | Fold increase [2, 36]: 1 | Mean number of revertants [2, 36]: 4 | Fold increase [2, 37]: 1 | Mean number of revertants [2, 37]: 4 | Fold increase [2, 38]: 1 | Mean number of revertants [2, 38]: 4 | Fold increase [2, 39]: 1 | Mean number of revertants [2, 39]: 4 | Fold increase [2, 40]: 1 | Mean number of revertants [2, 40]: 4 | Fold increase [2, 41]: 1 | Mean number of revertants [2, 41]: 4 | Fold increase [2, 42]: 1 | Mean number of revertants [2, 42]: 4 | Tumor growth (volume over time) (MB-231 xenograft tumors; 30 days): growth was completely inhibited | Tumor weight at end point (MB-231 xenograft tumors; day 30): significantly lower | IC50 (MB-231 cells): 603 nM

Source: patent publication US20250325529A1, “INHIBITORS OF FATTY ACID BINDING PROTEINS (FABPs), METHODS OF USE AND METHODS OF MAKING” (Celloram, inc., priority 2024, published 2025)
